Article PMC5011001 (Biochimica et biophysica acta, 2016)

Experiments:
[1] = biological target: T1, activated (phosphorylated) MAPK13 (Homo sapiens, UniProt O15264); test: MAPK13 kinase inhibition assay; assay type: biochemical; settings: for fold less potent (IC50) than compounds 58 and 61: MAPK13 IC50 comparison; for IC50 (MAPK13): steady-state enzyme inhibition, 3 μM ATP, stated as range in words
T1 sequence (O15264 1-365): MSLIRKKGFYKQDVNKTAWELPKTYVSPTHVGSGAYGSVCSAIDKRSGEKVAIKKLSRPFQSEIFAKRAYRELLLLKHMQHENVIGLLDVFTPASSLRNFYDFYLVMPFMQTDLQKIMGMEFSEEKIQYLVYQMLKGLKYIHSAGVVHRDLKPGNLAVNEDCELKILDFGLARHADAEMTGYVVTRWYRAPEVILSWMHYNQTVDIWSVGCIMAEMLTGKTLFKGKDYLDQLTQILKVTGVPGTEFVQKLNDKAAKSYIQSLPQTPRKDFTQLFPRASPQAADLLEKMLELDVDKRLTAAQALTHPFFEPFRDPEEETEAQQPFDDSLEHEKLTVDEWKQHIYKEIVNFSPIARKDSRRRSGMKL

MAPK14 = MAPK14 (Homo sapiens, UniProt Q16539); test: Differential scanning fluorimetry; assay type: binding
MAPK13 = settings: read-out: IC50 [MAPK13]; cited from earlier work
[2] = biological target: T2, MAPK13 (unphosphorylated) (Homo sapiens, UniProt O15264); test: Differential scanning fluorimetry; assay type: binding
T2 sequence (O15264 1-365): T1 sequence (O15264 1-365)

MAPK14, sequence (Q16539 whole entry, species assumed): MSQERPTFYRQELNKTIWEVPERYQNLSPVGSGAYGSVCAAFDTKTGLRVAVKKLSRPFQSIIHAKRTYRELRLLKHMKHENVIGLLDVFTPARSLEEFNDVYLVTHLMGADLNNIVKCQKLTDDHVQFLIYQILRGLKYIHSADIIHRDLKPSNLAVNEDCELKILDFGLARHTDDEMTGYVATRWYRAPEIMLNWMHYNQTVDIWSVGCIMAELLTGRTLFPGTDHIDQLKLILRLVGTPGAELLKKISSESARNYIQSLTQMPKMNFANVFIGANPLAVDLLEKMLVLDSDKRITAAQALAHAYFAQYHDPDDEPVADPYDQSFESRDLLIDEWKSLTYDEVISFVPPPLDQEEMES

Row | Kd [2] | Compound | fold less potent (IC50) than compounds 58 and 61 [1] | IC50 (MAPK13) [1] | ATm-MAPK14 (°C) (MAPK14) | IC50 (MAPK13)
1 |  | Cc1cn(-c2cccc(C(=O)Nc3ccc(Oc4ccncc4)cc3)c2)cn1 [Compound 117, 3-(4-methyl-1H-imidazol-1-yl)-N-[4-(pyridin-4-xyloxy)phenyl] benzamide] | over 800 fold | micromolar range |  | 
2 |  | O=C(Nc1ccc(Oc2ccncc2)cc1)c1ccnc(N2CCOCC2)c1 [Compound 124] | over 800 fold |  | −0.8± 0.3 °C | 
4 | 1900 ± 300 nM | Cn1nc(C(C)(C)C)cc1NC(=O)Nc1ccc(Sc2ccncc2)cc1 [Compound 58, 1-(3-tert-butyl-1-methyl-1H-pyrazol-5-yl)-3-[4-(pyridin-4-ylsulfanyl)phenyl]urea] |  | nanomolar range |  | 
